Target: T1, Capsid scaffolding protein (Herpes simplex virus (type 1 / strain 17), UniProt P10210)
T1 sequence (P10210 whole entry): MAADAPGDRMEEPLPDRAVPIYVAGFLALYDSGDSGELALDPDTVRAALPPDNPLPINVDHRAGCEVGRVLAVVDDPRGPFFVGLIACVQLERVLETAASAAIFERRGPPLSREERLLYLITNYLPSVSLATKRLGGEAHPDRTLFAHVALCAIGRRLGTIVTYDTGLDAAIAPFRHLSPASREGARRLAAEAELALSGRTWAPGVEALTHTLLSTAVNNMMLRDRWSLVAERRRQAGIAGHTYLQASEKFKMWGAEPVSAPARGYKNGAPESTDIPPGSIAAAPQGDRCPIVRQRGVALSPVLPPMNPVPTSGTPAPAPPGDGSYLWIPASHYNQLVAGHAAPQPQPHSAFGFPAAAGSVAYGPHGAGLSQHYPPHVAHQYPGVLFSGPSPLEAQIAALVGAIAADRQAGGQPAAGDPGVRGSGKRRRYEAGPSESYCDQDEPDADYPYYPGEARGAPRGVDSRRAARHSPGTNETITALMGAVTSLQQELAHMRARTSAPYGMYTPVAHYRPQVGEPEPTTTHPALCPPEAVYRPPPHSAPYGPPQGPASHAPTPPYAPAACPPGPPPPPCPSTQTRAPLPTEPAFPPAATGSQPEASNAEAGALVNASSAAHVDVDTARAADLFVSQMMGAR
Test: Inhibitory activity against herpes simplex type 1 protease (HSV-1 pr).

Going from `CC(C)Nc1nc2cc(N)ccc2c(=O)o1` to `CC(C)Nc1nc2ccccc2c(=O)o1`, the IC50 falls from 55 µM to 25 µM (2.2-fold). The second is the more potent here.

Going from `C[C@H](NC(=O)OCc1ccccc1)c1nc2cc(N)ccc2c(=O)o1` to `C[C@H](NC(=O)OCc1ccccc1)c1nc2ccccc2c(=O)o1`, the IC50 falls from 150 µM to 50 µM (3-fold).

Going from `CCOc1nc2c(Cl)ccc(Cl)c2c(=O)o1` to `CCOc1nc2cccc(Cl)c2c(=O)o1`, the IC50 rises from 1.5 µM to 7 µM (4.7-fold). The first is the more potent here.

Going from `C[C@@H](NC(=O)OCc1ccccc1)c1nc2cccc(F)c2c(=O)o1` to `C[C@H](NC(=O)OCc1ccccc1)c1nc2cccc(F)c2c(=O)o1`, the IC50 falls from 200 µM to 50 µM (4-fold). The second is the more potent here.

Going from `CCc1cccc2nc([C@H](C)NC(=O)OCc3ccccc3)oc(=O)c12` to `Cc1cccc2nc([C@H](C)NC(=O)OCc3ccccc3)oc(=O)c12`, the IC50 falls from > 300 µM to 120 µM.

Compared with `CCOc1nc2ccccc2c(=O)o1`, `C=CCOc1nc2ccccc2c(=O)o1` is 1.7-fold lower in IC50: 25 µM for the first, 15 µM for the second. The second is the more potent here.

`CCOc1nc2cccc(CC)c2c(=O)o1` and `CCOc1nc2cccc(C)c2c(=O)o1` are within 1.5-fold of each other in IC50: 20 µM for the first, 15 µM for the second.

Going from `CC(NC(=O)OCc1ccccc1)C(=O)Nc1ccc2c(=O)oc([C@H](C)NC(=O)OCc3ccccc3)nc2c1` (stereo partly drawn) to `CC(C)Nc1nc2cc(NC(=O)C(C)NC(=O)OCc3ccccc3)ccc2c(=O)o1` (stereo not drawn), the IC50 falls from 12 µM to 5 µM (2.4-fold).

Compared with `CC(C)Nc1nc2cc(NC(=O)C(CC(N)=O)NC(=O)OCc3ccccc3)ccc2c(=O)o1` (stereo not drawn), `CC(C)COC(=O)Nc1ccc2c(=O)oc(NC(C)C)nc2c1` is 3.3-fold higher in IC50: 15 µM for the first, 50 µM for the second.

Going from `COc1ccc(Oc2nc3ccccc3c(=O)o2)cc1` to `O=c1oc(Oc2ccccc2)nc2ccccc12`, the IC50 rises from 2.5 µM to 10 µM (4-fold).

Going from `C[C@H](NC(=O)OCc1ccccc1)c1nc2cccc(Cl)c2c(=O)o1` to `CC(Nc1nc2ccccc2c(=O)o1)c1ccccc1` (stereo not drawn), the IC50 falls from > 300 µM to 60 µM. The second is the more potent here.

Going from `CCCCNc1nc2ccccc2c(=O)o1` to `COC(=O)C(C)Nc1nc2ccccc2c(=O)o1` (stereo not drawn), the IC50 falls from 300 µM to 25 µM (12-fold).

First: CCOc1nc2cccc(F)c2c(=O)o1
Second: O=c1oc(Nc2cccc(F)c2)nc2ccccc12
The IC50 of the first is lower: 75 µM for the first, > 300 µM for the second. The first is the more potent here.

Tested on: not listed separately
Test: Half-life in aqueous solution.
Assay type: ADME

Compared with `CCOc1nc2c(Cl)ccc(Cl)c2c(=O)o1`, `CC(C)Nc1nc2cc(NC(=O)C(C)NC(=O)OCc3ccccc3)ccc2c(=O)o1` (stereo not drawn) is higher in half-life: 0.0417 days for the first, 7.12 days for the second.
